Test results reported in ChEMBL document CHEMBL1201861, “Genomics of Drug Sensitity in Cancer screening data, Wellcome Trust Sanger Institute”.

What was measured:
Assay in all cases: cells
GT3TKB = format: functional, cell-based, Homo sapiens; conditions: Homo sapiens, GT3TKB;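 also: growth inhibition of the cell line, read out with a cell viability assay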
Description: SANGER: Inhibition of human GT3TKB cell growth in a cell viability assay.

D-392MG = format: functional, cell-based, Homo sapiens; conditions: Homo sapiens, D-392MG
HEC-1 = format: functional, cell-based, Homo sapiens; conditions: Homo sapiens, HEC-1;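 also: growth inhibition of the cell line, read out with a cell viability assay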
Description: SANGER: Inhibition of human HEC-1 cell growth in a cell viability assay.

LU-134-A = format: functional, cell-based; conditions: Homo sapiens
Description: SANGER: Inhibition of human LU-134-A cell growth in a cell viability assay.

GMS-10 = format: functional, cell-based, Homo sapiens; conditions: Homo sapiens, GMS-10;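 also: growth inhibition of GMS-10 cells, read out as cell viability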
Description: SANGER: Inhibition of human GMS-10 cell growth in a cell viability assay.

OE19 = format: functional, cell-based, Homo sapiens; conditions: Homo sapiens, OE19;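 also: growth inhibition of OE19 cells, measured through a cell viability read-out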
Description: SANGER: Inhibition of human OE19 cell growth in a cell viability assay.

HCC1569 = format: functional, cell-based, Homo sapiens; conditions: Homo sapiens, HCC1569;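 also: growth inhibition of human HCC1569 cells, read out with a cell viability assay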
Description: SANGER: Inhibition of human HCC1569 cell growth in a cell viability assay.

MOLT-4 = format: functional, cell-based; conditions: Homo sapiens;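 also: growth inhibition of MOLT-4 cells, determined with a cell viability readout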
Description: SANGER: Inhibition of human MOLT-4 cell growth in a cell viability assay.

KYSE-450 = format: functional, cell-based; conditions: Homo sapiens;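 also: cell growth inhibition measured by a viability assay in human KYSE-450 cells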
Description: SANGER: Inhibition of human KYSE-450 cell growth in a cell viability assay.

EW-24 = format: functional, cell-based; conditions: Homo sapiens;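 also: human EW-24 cancer cell line, growth inhibition read out via a cell viability assay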
Description: SANGER: Inhibition of human EW-24 cell growth in a cell viability assay.

Hs-578T = format: functional, cell-based, Homo sapiens; conditions: Homo sapiens, Hs-578T
Description: SANGER: Inhibition of human Hs-578-T cell growth in a cell viability assay.

JVM-3 = format: functional, cell-based; conditions: Homo sapiens;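 also: growth inhibition of human JVM-3 cells, read out with a cell viability assay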
Description: SANGER: Inhibition of human JVM-3 cell growth in a cell viability assay.

MZ7-mel = format: functional, cell-based, Homo sapiens; conditions: Homo sapiens, MZ7-mel;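 also: growth inhibition of human MZ7-mel cells, measured by a cell viability assay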
Description: SANGER: Inhibition of human MZ7-mel cell growth in a cell viability assay.

MV4-11 = format: functional, cell-based, MV-4-11; conditions: Homo sapiens;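 also: cell viability readout measuring growth inhibition of human MV-4-11 cells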
Description: SANGER: Inhibition of human MV-4-11 cell growth in a cell viability assay.

NCI-H358 = format: functional, cell-based, Homo sapiens; conditions: Homo sapiens, NCI-H358;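 also: growth inhibition of NCI-H358 human cells, read out with a cell viability assay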
Description: SANGER: Inhibition of human NCI-H358 cell growth in a cell viability assay.

RS4-11 = format: functional, cell-based; conditions: Homo sapiens;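 also: growth inhibition of RS4-11 cells, read out by a cell viability assay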
Description: SANGER: Inhibition of human RS4-11 cell growth in a cell viability assay.

NCI-H810 = format: functional, cell-based, Homo sapiens; conditions: Homo sapiens, NCI-H810;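 also: IC50 reflects inhibition of cancer cell line growth, read out with a cell viability assay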
Description: SANGER: Inhibition of human NCI-H810 cell growth in a cell viability assay.

RXF 393 = format: functional, cell-based; conditions: Homo sapiens;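 also: growth inhibition of human RXF 393 cells, read out with a cell viability assay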
Description: SANGER: Inhibition of human RXF393 cell growth in a cell viability assay.

NCI-H2087 = format: functional, cell-based, Homo sapiens; conditions: Homo sapiens, NCI-H2087;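 also: growth inhibition determined with a cell viability readout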
Description: SANGER: Inhibition of human NCI-H2087 cell growth in a cell viability assay.

SCC-25 = format: functional, cell-based, Homo sapiens; conditions: Homo sapiens, SCC-25;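 also: growth inhibition of SCC-25 cells, measured with a cell viability assay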
Description: SANGER: Inhibition of human SCC-25 cell growth in a cell viability assay.

LoVo = format: functional, cell-based; conditions: Homo sapiens;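 also: growth inhibition of human LoVo cells, read out with a cell viability assay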
Description: SANGER: Inhibition of human LoVo cell growth in a cell viability assay.

Ca-Ski = format: functional, cell-based; conditions: Homo sapiens;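 also: cell viability assay measuring inhibition of Ca-Ski cell growth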
Description: SANGER: Inhibition of human Ca-Ski cell growth in a cell viability assay.

ALL-PO = format: functional, cell-based; conditions: Homo sapiens;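 also: growth inhibition of ALL-PO cells, read out by a cell viability assay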
Description: SANGER: Inhibition of human ALL-PO cell growth in a cell viability assay.

TYK-nu = format: functional, cell-based, Homo sapiens; conditions: Homo sapiens, TYK-nu;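 also: growth inhibition of human TYK-nu cells, read out by a cell viability assay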
Description: SANGER: Inhibition of human TYK-nu cell growth in a cell viability assay.

HT1197 = format: functional, cell-based, Homo sapiens, HT-1197; conditions: Homo sapiens, HT1197
Description: SANGER: Inhibition of human HT-1197 cell growth in a cell viability assay.

RCM-1 = format: functional, cell-based, Homo sapiens; conditions: Homo sapiens, RCM-1;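 also: growth inhibition of the RCM-1 line, determined with a cell viability readout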
Description: SANGER: Inhibition of human RCM-1 cell growth in a cell viability assay.

HT-1080 = format: functional, cell-based, Homo sapiens; conditions: Homo sapiens, HT-1080
Description: SANGER: Inhibition of human HT-1080 cell growth in a cell viability assay.

WM-115 = format: functional, cell-based, Homo sapiens; conditions: Homo sapiens, WM-115
Description: SANGER: Inhibition of human WM-115 cell growth in a cell viability assay.

SK-LU-1 = format: functional, cell-based, Homo sapiens; conditions: Homo sapiens, SK-LU-1;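 also: cell viability assay measuring growth inhibition of human SK-LU-1 cells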
Description: SANGER: Inhibition of human SK-LU-1 cell growth in a cell viability assay.

SK-MEL3 = format: functional, cell-based, Homo sapiens, SK-MEL-3; conditions: Homo sapiens, SK-MEL3;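 also: growth inhibition of human SK-MEL-3 cells, read out with a cell viability assay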
Description: SANGER: Inhibition of human SK-MEL-3 cell growth in a cell viability assay.

LAN-6 = format: functional, cell-based, Homo sapiens; conditions: Homo sapiens, LAN-6;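 also: growth inhibition of LAN-6 cells, determined with a cell viability assay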
Description: SANGER: Inhibition of human LAN-6 cell growth in a cell viability assay.

BV-173 = format: functional, cell-based; conditions: Homo sapiens
Description: SANGER: Inhibition of human BV-173 cell growth in a cell viability assay.

SW780 = format: functional, cell-based, Homo sapiens; conditions: Homo sapiens, SW780;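 also: growth inhibition of the cells, read out with a cell viability assay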
Description: SANGER: Inhibition of human SW780 cell growth in a cell viability assay.

HCC70 = format: functional, cell-based, Homo sapiens; conditions: Homo sapiens, HCC70;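 also: cell viability assay measuring how strongly the compound suppresses proliferation of HCC70 cells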
Description: SANGER: Inhibition of human HCC70 cell growth in a cell viability assay.

SCC-9 = format: functional, cell-based, Homo sapiens; conditions: Homo sapiens, SCC-9;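 also: Read-out is a cell viability assay, with values giving inhibition of cell growth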
Description: SANGER: Inhibition of human SCC-9 cell growth in a cell viability assay.

BT-474 = format: functional, cell-based, Homo sapiens; conditions: Homo sapiens, BT-474
Description: SANGER: Inhibition of human BT-474 cell growth in a cell viability assay.

RCC10RGB = format: functional, cell-based, Homo sapiens; conditions: Homo sapiens, RCC10RGB;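 also: growth inhibition of human RCC10RGB cells, read out by a cell viability assay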
Description: SANGER: Inhibition of human RCC10RGB cell growth in a cell viability assay.

NCI-H2405 = format: functional, cell-based, Homo sapiens; conditions: Homo sapiens, NCI-H2405;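 also: growth inhibition of the human cell line, read out with a cell viability assay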
Description: SANGER: Inhibition of human NCI-H2405 cell growth in a cell viability assay.

MDA-MB-361 = format: functional, cell-based, Homo sapiens; conditions: Homo sapiens, MDA-MB-361
NCI-H2347 = format: functional, cell-based, Homo sapiens; conditions: Homo sapiens, NCI-H2347;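 also: growth inhibition of the cell line, read out with a cell viability assay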
Description: SANGER: Inhibition of human NCI-H2347 cell growth in a cell viability assay.

KYSE-150 cell line = format: functional, cell-based, Homo sapiens; conditions: Homo sapiens, KYSE-150;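 also: growth inhibition of human KYSE-150 cells, read out with a cell viability assay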
Description: SANGER: Inhibition of human KYSE-150 cell growth in a cell viability assay.

CCRF-CEM = format: functional, cell-based; conditions: Homo sapiens;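 also: inhibition of CCRF-CEM cell growth, measured by a cell viability assay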
Description: SANGER: Inhibition of human CCRF-CEM cell growth in a cell viability assay.

D-502MG = format: functional, cell-based, Homo sapiens; conditions: Homo sapiens, D-502MG
Description: SANGER: Inhibition of human D-502MG cell growth in a cell viability assay.

COLO-741 = format: functional, cell-based, Homo sapiens; conditions: Homo sapiens, COLO-741
Description: SANGER: Inhibition of human COLO-741 cell growth in a cell viability assay.

TGW = format: functional, cell-based; conditions: Homo sapiens;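 also: growth inhibition of human TGW cells, read out with a cell viability assay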
Description: SANGER: Inhibition of human TGW cell growth in a cell viability assay.

L-363 = format: functional, cell-based; conditions: Homo sapiens
Description: SANGER: Inhibition of human L-363 cell growth in a cell viability assay.

KYSE-140 = format: functional, cell-based, Homo sapiens; conditions: Homo sapiens, KYSE-140;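 also: cell viability assay measuring growth inhibition in human KYSE-140 cells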
Description: SANGER: Inhibition of human KYSE-140 cell growth in a cell viability assay.

UACC-893 = format: functional, cell-based, Homo sapiens; conditions: Homo sapiens, UACC-893
Description: SANGER: Inhibition of human UACC-893 cell growth in a cell viability assay.

ONS-76 = format: functional, cell-based, Homo sapiens; conditions: Homo sapiens, ONS-76;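 also: growth inhibition of human ONS-76 cells, read out with a cell viability assay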
Description: SANGER: Inhibition of human ONS-76 cell growth in a cell viability assay.

COR-L23 = format: functional, cell-based, Homo sapiens; conditions: Homo sapiens, COR-L23;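 also: cell viability assay measuring how strongly compounds suppress growth of COR-L23 cells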
Description: SANGER: Inhibition of human COR-L23 cell growth in a cell viability assay.

GI-ME-N = format: functional, cell-based, Homo sapiens; conditions: Homo sapiens, GI-ME-N;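 also: growth inhibition of human GI-ME-N cells, read out with a cell viability assay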
Description: SANGER: Inhibition of human GI-ME-N cell growth in a cell viability assay.

Compound: COc1cc([C@@H]2c3cc4c(cc3[C@@H](O[C@@H]3O[C@@H]5CO[C@@H](C)O[C@H]5[C@H](O)[C@H]3O)[C@H]3COC(=O)[C@H]23)OCO4)cc(OC)c1O [ETOPOSIDE]
- IC50 (GT3TKB): 406 nM
- IC50 (D-392MG): > 16000 nM
- IC50 (HEC-1): 2370 nM
- IC50 (LU-134-A): 299 nM
- IC50 (GMS-10): > 16000 nM
- IC50 (OE19): > 16000 nM
- IC50 (HCC1569): 3580 nM
- IC50 (MOLT-4): 418 nM
- IC50 (KYSE-450): 3690 nM
- IC50 (EW-24): > 16000 nM
- IC50 (Hs-578T): > 16000 nM
- IC50 (JVM-3): > 16000 nM
- IC50 (MZ7-mel): 4300 nM
- IC50 (MV4-11): 151 nM
- IC50 (NCI-H358): 3150 nM
- IC50 (RS4-11): 196 nM
- IC50 (NCI-H810): 1580 nM
- IC50 (RXF 393): > 16000 nM
- IC50 (NCI-H2087): 763 nM
- IC50 (SCC-25): 6630 nM
- IC50 (LoVo): 2060 nM
- IC50 (Ca-Ski): 2330 nM
- IC50 (ALL-PO): 690 nM
- IC50 (TYK-nu): 2410 nM
- IC50 (HT1197): > 16000 nM
- IC50 (RCM-1): > 16000 nM
- IC50 (HT-1080): 109 nM
- IC50 (WM-115): > 16000 nM
- IC50 (SK-LU-1): 1290 nM
- IC50 (SK-MEL3): 10100 nM
- IC50 (LAN-6): > 16000 nM
- IC50 (BV-173): 5050 nM
- IC50 (SW780): > 16000 nM
- IC50 (HCC70): > 16000 nM
- IC50 (SCC-9): 850 nM
- IC50 (BT-474): > 16000 nM
- IC50 (RCC10RGB): > 16000 nM
- IC50 (NCI-H2405): 2440 nM
- IC50 (MDA-MB-361): > 16000 nM
- IC50 (NCI-H2347): 9660 nM
- IC50 (KYSE-150 cell line): 530 nM
- IC50 (CCRF-CEM): 170 nM
- IC50 (D-502MG): > 16000 nM
- IC50 (COLO-741): > 16000 nM
- IC50 (TGW): > 16000 nM
- IC50 (L-363): 6590 nM
- IC50 (KYSE-140): 4920 nM
- IC50 (UACC-893): > 16000 nM
- IC50 (ONS-76): 754 nM
- IC50 (COR-L23): 6180 nM
- IC50 (GI-ME-N): 9830 nM

Compound: Cc1cnc(-c2cnc(NCCNc3ccc(C#N)cn3)nc2-c2ccc(Cl)cc2Cl)[nH]1 [LADUVIGLUSIB]
- IC50 (GT3TKB): > 2560 nM
- IC50 (D-392MG): > 2560 nM
- IC50 (HEC-1): > 2560 nM
- IC50 (LU-134-A): > 2560 nM
- IC50 (GMS-10): > 2560 nM
- IC50 (OE19): > 2560 nM
- IC50 (HCC1569): > 2560 nM
- IC50 (MOLT-4): > 2560 nM
- IC50 (KYSE-450): > 2560 nM
- IC50 (EW-24): > 2560 nM
- IC50 (Hs-578T): > 2560 nM
- IC50 (JVM-3): > 2560 nM
- IC50 (MZ7-mel): > 2560 nM
- IC50 (MV4-11): > 2560 nM
- IC50 (NCI-H358): > 2560 nM
- IC50 (RS4-11): 1950 nM
- IC50 (NCI-H810): > 2560 nM
- IC50 (RXF 393): > 2560 nM
- IC50 (NCI-H2087): > 2560 nM
- IC50 (SCC-25): > 2560 nM
- IC50 (LoVo): > 2560 nM
- IC50 (Ca-Ski): > 2560 nM
- IC50 (ALL-PO): > 2560 nM
- IC50 (TYK-nu): 1080 nM
- IC50 (HT1197): > 2560 nM
- IC50 (RCM-1): > 2560 nM
- IC50 (HT-1080): > 2560 nM
- IC50 (WM-115): > 2560 nM
- IC50 (SK-LU-1): > 2560 nM
- IC50 (SK-MEL3): > 2560 nM
- IC50 (LAN-6): > 2560 nM
- IC50 (BV-173): > 2560 nM
- IC50 (SW780): > 2560 nM
- IC50 (HCC70): > 2560 nM
- IC50 (SCC-9): > 2560 nM
- IC50 (BT-474): > 2560 nM
- IC50 (RCC10RGB): > 2560 nM
- IC50 (NCI-H2405): > 2560 nM
- IC50 (MDA-MB-361): > 2560 nM
- IC50 (NCI-H2347): > 2560 nM
- IC50 (KYSE-150 cell line): > 2560 nM
- IC50 (CCRF-CEM): > 2560 nM
- IC50 (D-502MG): > 2560 nM
- IC50 (COLO-741): > 2560 nM
- IC50 (TGW): > 2560 nM
- IC50 (L-363): > 2560 nM
- IC50 (KYSE-140): > 2560 nM
- IC50 (UACC-893): > 2560 nM
- IC50 (ONS-76): > 2560 nM
- IC50 (COR-L23): > 2560 nM
- IC50 (GI-ME-N): > 2560 nM
